Measurements published in PubChem BioAssay (NCI).
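Five compound concentrations were applied to cells in 96-well plates for 48 hours; endpoints were derived by simple linear interpolation of the resulting dose-response curve. TGI: concentration producing complete growth inhibition.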

Assays:
Experiment in all cases: growth of human tumour cells (NCI), 48 h
OVCAR-4 ovarian = tested on: OVCAR-4 ovarian
SK-MEL-28 melanoma = tested on: SK-MEL-28 melanoma
MCF7 breast = tested on: MCF7 breast
SF-268 CNS = tested on: SF-268 CNS
MDA-N = tested on: MDA-N
KM12 colon = tested on: KM12 colon
COLO 205 colon = tested on: COLO 205 colon
NCI-H23 lung = tested on: NCI-H23 lung
CCRF-CEM leukemia = tested on: CCRF-CEM leukemia
K-562 leukemia = tested on: K-562 leukemia
IGROV1 ovarian = tested on: IGROV1 ovarian
NCI-H460 lung = tested on: NCI-H460 lung
DU-145 prostate = tested on: DU-145 prostate
SW-620 colon = tested on: SW-620 colon
OVCAR-8 ovarian = tested on: OVCAR-8 ovarian
HOP-62 NSCLC = tested on: HOP-62 NSCLC
SF-539 CNS = tested on: SF-539 CNS
A549 NSCLC = tested on: A549 NSCLC
786-0 renal = tested on: 786-0 renal
SF-295 CNS = tested on: SF-295 CNS
MALME-3M melanoma = tested on: MALME-3M melanoma
HCC-2998 colon = tested on: HCC-2998 colon
OVCAR-5 ovarian = tested on: OVCAR-5 ovarian
NCI/ADR-RES ovarian = tested on: NCI/ADR-RES ovarian
PC-3 prostate = tested on: PC-3 prostate
RPMI-8226 leukemia = tested on: RPMI-8226 leukemia
CAKI-1 renal = tested on: CAKI-1 renal
SK-MEL-5 melanoma = tested on: SK-MEL-5 melanoma
ACHN renal = tested on: ACHN renal
UACC-257 melanoma = tested on: UACC-257 melanoma
M14 melanoma = tested on: M14 melanoma
MDA-MB-435 = tested on: MDA-MB-435
HCT-116 colon = tested on: HCT-116 colon
SK-MEL-2 melanoma = tested on: SK-MEL-2 melanoma
T-47D breast = tested on: T-47D breast
UACC-62 melanoma = tested on: UACC-62 melanoma
RXF 393 renal = tested on: RXF 393 renal
SNB-19 CNS = tested on: SNB-19 CNS
TK-10 renal = tested on: TK-10 renal
SNB-75 CNS = tested on: SNB-75 CNS
MOLT-4 leukemia = tested on: MOLT-4 leukemia
SK-OV-3 ovarian = tested on: SK-OV-3 ovarian
BT-549 breast = tested on: BT-549 breast
HCT-15 colon = tested on: HCT-15 colon
NCI-H522 lung = tested on: NCI-H522 lung
UO-31 renal = tested on: UO-31 renal
LOX IMVI melanoma = tested on: LOX IMVI melanoma
MDA-MB-231 breast = tested on: MDA-MB-231 breast
OVCAR-3 ovarian = tested on: OVCAR-3 ovarian
EKVX NSCLC = tested on: EKVX NSCLC
U251 CNS = tested on: U251 CNS
SN12C renal = tested on: SN12C renal
HT29 colon = tested on: HT29 colon
HS 578T breast = tested on: HS 578T breast
HL-60(TB) leukemia = tested on: HL-60(TB) leukemia
A498 renal = tested on: A498 renal
NCI-H226 lung = tested on: NCI-H226 lung
HOP-92 NSCLC = tested on: HOP-92 NSCLC
SR leukemia = tested on: SR leukemia

Measured: TGI

COc1ccc(N[C@H](CS(=O)c2ccc(C)cc2)c2ccc(F)cc2)cc1 (some centres not stated)
47.4 µM: IGROV1 ovarian
94.5 µM: SF-268 CNS
56.7 µM: SF-539 CNS
81.7 µM: SNB-75 CNS
not listed: HS 578T breast | HL-60(TB) leukemia | A498 renal | NCI-H226 lung | HOP-92 NSCLC | SR leukemia
> 100 µM: all other assays above

COC(=O)CCCc1ccc2c(c1)CC1(C2)Cc2cc3c(cc2C1)CCCC3
74.5 µM: HCC-2998 colon
40.3 µM: MDA-MB-435
94.2 µM: RXF 393 renal
38.9 µM: MOLT-4 leukemia
42.3 µM: MDA-N
0.713 µM: SR leukemia
67 µM: UACC-62 melanoma
90.9 µM: HS 578T breast
52.5 µM: K-562 leukemia
53 µM: COLO 205 colon
41.2 µM: SK-MEL-5 melanoma
57.1 µM: SK-MEL-2 melanoma
15.9 µM: HCT-116 colon
89.3 µM: HCT-15 colon
85.2 µM: RPMI-8226 leukemia
29.2 µM: HL-60(TB) leukemia
72.1 µM: LOX IMVI melanoma
80.6 µM: KM12 colon
85.1 µM: HOP-92 NSCLC
68.2 µM: M14 melanoma
84 µM: NCI-H522 lung
67.7 µM: A549 NSCLC
not listed: SK-MEL-28 melanoma | SF-268 CNS | CCRF-CEM leukemia | NCI-H460 lung | DU-145 prostate | SW-620 colon | CAKI-1 renal | SNB-19 CNS | SNB-75 CNS | BT-549 breast
> 100 µM: all other assays above
